Consider 6 molecules from ChEMBL document CHEMBL1201862, “PubChem BioAssay data set” (2004).

Test systems include A549; CCRF-CEM; EKVX; HCC 2998; HOP-92; K562; LOX IMVI; MDA-MB-231; MDA-MB-435; MDA-N; Malme-3M; NCI-H522; OVCAR-5; PC-3; RPMI-8226; SF-539; SK-MEL-5; SNB-19; SW-620; U-251.
Experiment in all cases: NCI anticancer screen, dose series, 48 h

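Briefly, cells in 96-well plates were exposed to five compound concentrations for 48 h, and endpoints were estimated by linear interpolation. Abbreviation: GI50, concentration required for 50% inhibition of growth.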 Activity calls are given as the source filed them. No stated cut-off is given here; in the data, active = GI50 up to about 1.1 µM and inactive = higher.

Consider `COC(=O)c1ccc(NCc2cc(O)c3ccccc3c2O)cc1`, for which the GI50 in the experiment on A549 was 10.8 µM (inactive); in the experiment on CCRF-CEM, 2.86 µM (inactive); with EKVX, 18.3 µM (inactive); with HCC 2998, 21.9 µM (inactive); in the experiment on HOP-92, 2.55 µM (inactive); in the experiment on K562, 2.59 µM (inactive). For the same molecule, the GI50 is 3.48 µM (inactive) with LOX IMVI; 2.17 µM (inactive) in the experiment with MDA-MB-231; 2.11 µM (inactive) in the experiment on MDA-MB-435; 2.15 µM (inactive) in the experiment with MDA-N; 2.56 µM (inactive) in the experiment with Malme-3M; 16.1 µM (inactive) with NCI-H522. The GI50 was 21.6 µM (inactive) with OVCAR-5; 17.2 µM (inactive) with PC-3; 3.45 µM (inactive) in the experiment with RPMI-8226; 15.3 µM (inactive) with SF-539; 1.51 µM (inactive) in the experiment with SK-MEL-5; 22.2 µM (inactive) in the experiment with SNB-19. In addition, the GI50 in the experiment with SW-620 was 12.9 µM (inactive); in the experiment on U-251, 16.7 µM (inactive).
On to `CCN(CC)Cc1c(/C=C\c2cc(OC)c(OC)c(OC)c2)ccc(OC)c1O`, for which the GI50 was 4.25 µM (inactive) with A549; 6.53 µM (inactive) in the experiment with CCRF-CEM; 6.1 µM (inactive) in the experiment on EKVX; 3.73 µM (inactive) in the experiment on HCC 2998; 8.87 µM (inactive) in the experiment with HOP-92; 3.27 µM (inactive) in the experiment on K562. Also, the GI50 was 6.24 µM (inactive) with LOX IMVI; 4.28 µM (inactive) in the experiment on MDA-MB-231; 0.264 µM (active) in the experiment with MDA-MB-435; 0.387 µM (active) in the experiment with MDA-N; 3.23 µM (inactive) in the experiment with Malme-3M; 1.87 µM (inactive) in the experiment with NCI-H522. Moreover, the GI50 is 9.48 µM (inactive) with OVCAR-5; 1.8 µM (inactive) in the experiment on PC-3; 3 µM (inactive) in the experiment on RPMI-8226; 2.29 µM (inactive) in the experiment on SF-539; 2.68 µM (inactive) in the experiment with SK-MEL-5; 10.3 µM (inactive) in the experiment on SNB-19. Also, the GI50 in the experiment on SW-620 is 2.77 µM (inactive); with U-251, 2.87 µM (inactive).
In the case of `O=S1(=O)OCCOS(=O)(=O)C1Cc1cccc2ccccc12`, the GI50 with A549 was 35.2 µM (inactive); in the experiment with CCRF-CEM, 14.2 µM (inactive); in the experiment with EKVX, 30.3 µM (inactive); with HCC 2998, 20.1 µM (inactive); in the experiment on HOP-92, 17.9 µM (inactive); with K562, 15.6 µM (inactive). Further, the GI50 was 20.5 µM (inactive) in the experiment with LOX IMVI; 23 µM (inactive) in the experiment on MDA-MB-231; 16.2 µM (inactive) with MDA-MB-435; 21.2 µM (inactive) in the experiment with MDA-N; 16.1 µM (inactive) in the experiment with Malme-3M; 18.9 µM (inactive) with NCI-H522. Moreover, the GI50 was 24.3 µM (inactive) with OVCAR-5; 33.2 µM (inactive) in the experiment on PC-3; 39.4 µM (inactive) in the experiment on RPMI-8226; 22.3 µM (inactive) in the experiment on SF-539; 14.4 µM (inactive) in the experiment on SK-MEL-5; 25 µM (inactive) with SNB-19. Moreover, the GI50 in the experiment with SW-620 is 30.6 µM (inactive); with U-251, 18.2 µM (inactive).
For the molecule `Cc1ccc(-c2ccc3c(c2)Sc2ccccc2O3)n1C`, the GI50 was 0.675 µM (active) in the experiment with A549; 0.213 µM (active) in the experiment on CCRF-CEM; 0.618 µM (active) with EKVX; 0.171 µM (active) in the experiment with HCC 2998; 19.8 µM (inactive) in the experiment with HOP-92; 0.137 µM (active) in the experiment with K562. Also, the GI50 is 0.524 µM (active) in the experiment with LOX IMVI; 1.19 µM (inactive) with MDA-MB-231; 0.0263 µM (active) in the experiment on MDA-MB-435; 0.0285 µM (active) with MDA-N; 0.0984 µM (active) in the experiment with Malme-3M; 0.0564 µM (active) with NCI-H522. For the same molecule, the GI50 with OVCAR-5 is 0.809 µM (active); with PC-3, 0.348 µM (active); with RPMI-8226, 0.179 µM (active); in the experiment with SF-539 it was 0.308 µM (active); with SK-MEL-5, 0.356 µM (active); with SNB-19, 0.607 µM (active). The GI50 in the experiment on SW-620 was 0.264 µM (active); in the experiment with U-251, 0.329 µM (active).
For the molecule `CCCCC(=O)OC[n+]1ccc2c(C)c3[nH]c4ccc(OC)cc4c3c(C)c2c1`, the GI50 is 0.308 µM (active) in the experiment on A549; 0.0684 µM (active) in the experiment on CCRF-CEM; 1.14 µM (inactive) in the experiment with EKVX; 0.512 µM (active) with HCC 2998; 1.23 µM (inactive) with HOP-92; 0.0702 µM (active) in the experiment on K562. Further, the GI50 with LOX IMVI was 0.271 µM (active); in the experiment with MDA-MB-231, 0.185 µM (active); in the experiment on MDA-MB-435, 0.461 µM (active); in the experiment with MDA-N, 0.321 µM (active); with Malme-3M it was 1.16 µM (inactive); in the experiment with NCI-H522, 0.695 µM (active). In addition, the GI50 with OVCAR-5 is 1.67 µM (inactive); with PC-3 it was 0.308 µM (active); with RPMI-8226, 0.0675 µM (active); with SF-539 it was 0.367 µM (active); with SK-MEL-5 it was 1.22 µM (inactive); in the experiment on SNB-19, 0.364 µM (active). For the same molecule, the GI50 in the experiment with SW-620 was 0.14 µM (active); in the experiment with U-251, 0.348 µM (active).
With `CNC(=O)CCCNC(=O)CCCC(=O)N(C)C`, the GI50 in the experiment with A549, in the experiment with CCRF-CEM, in the experiment on EKVX, in the experiment with HCC 2998, in the experiment on HOP-92 and in the experiment with K562 was > 100 µM (inactive) in each case. The GI50 in the experiment on LOX IMVI, with MDA-MB-231, with MDA-MB-435, in the experiment with MDA-N, with Malme-3M and in the experiment on NCI-H522 was > 100 µM (inactive) throughout. For the same molecule, the GI50 in the experiment on OVCAR-5, in the experiment with PC-3, with RPMI-8226, in the experiment on SF-539, with SK-MEL-5 and in the experiment with SNB-19 was > 100 µM (inactive) throughout. For the same molecule, the GI50 in the experiment on SW-620 is 45.5 µM (inactive); in the experiment with U-251, > 100 µM (inactive).
